How the values were obtained:
[1] = system: E. faecalis 29212; assay: microbroth dilution MIC; type: cell-based, Enterococcus faecalis
[2] = system: Streptococcus pneumoniae 49619; assay: microbroth dilution MIC; type: cell-based
[3] = system: Candida albicans ATCC 24433; assay: disk diffusion assay; type: cell-based; details: 10 micrograms per disk; 35° C. Further: key: R = resistant.
[4] = system: GISA 700699; assay: microbroth dilution MIC
[5] = system: S. epidermis ATCC 12228; assay: disk diffusion assay; type: cell-based, Staphylococcus epidermidis; details: 10 micrograms per disk; 35° C.
[6] = system: Bacillus subtilis; assay: microbroth dilution MIC
[7] = system: Bacillus anthracis K8902; type: cell-based; details: 10 micrograms per disk; ciprofloxacin 5, vancomycin 30 micrograms per disk; 35° C.
[8] = system: Enterococcus faecalis ATCC 51299; assay: disk diffusion assay; type: cell-based; details: 10 micrograms per disk; ciprofloxacin 5, vancomycin 30 micrograms per disk; 35° C.
[9] = system: Streptococcus pneumoniae 700674; assay: microbroth dilution MIC
[10] = system: Candida parasilosis ATCC 22019; assay: disk diffusion assay; type: cell-based, Candida parapsilosis; details: 10 micrograms per disk; 35° C. Further: key: R = resistant.
[11] = system: Enterococcus faecalis ATCC 51299 (VRE); assay: microbroth dilution MIC; type: cell-based
[12] = system: M. tuberculosis H37Rv (ATCC 25618) (drug sensitive); assay: IC50 in Mycobacteria 7H11 agar; type: cell-based, Mycobacterium tuberculosis; details: 7H11 agar with 10% OADC
[13] = system: B. subtilis 1A757; assay: microbe, parasite or virus in culture; type: cell-based, Bacillus subtilis
[14] = system: Listeria monocytogenes 19114; assay: microbroth dilution MIC; type: cell-based
[15] = system: S. epidermis 12228; assay: microbroth dilution MIC; type: cell-based, Staphylococcus epidermidis
[16] = system: Staphylococcus aureus ATCC 33591 (MRSA); assay: microbroth dilution MIC; type: cell-based; details: second listing in Table 4
[17] = system: Candida glabrata ATCC 2001; assay: disk diffusion assay; type: cell-based; details: 10 micrograms per disk; 35° C. Further: key: R = resistant.
[18] = system: Candida tropicalis ATCC 750; assay: disk diffusion assay; type: cell-based; details: 10 micrograms per disk; 35° C. Further: key: R = resistant.
[19] = system: Staphylococccus simulans 11631; assay: microbroth dilution MIC; type: cell-based, Staphylococcus simulans
[20] = system: Enterococcus faecium ATCC 49624; assay: disk diffusion assay; type: cell-based; details: 10 micrograms per disk; ciprofloxacin 5, vancomycin 30 micrograms per disk; 35° C.
[21] = system: S. aureus 29213; assay: microbroth dilution MIC; type: cell-based, Staphylococcus aureus
[22] = system: Listeria monocytogenes 19115; assay: microbroth dilution MIC; type: cell-based
[23] = system: Candida parasdosis ATCC 90018; assay: disk diffusion assay; type: cell-based, Candida parapsilosis; details: 10 micrograms per disk; 35° C. Further: key: R = resistant.
[24] = system: Staphylococccus aureus 27734; assay: microbroth dilution MIC; type: cell-based, Staphylococcus aureus
[25] = system: Saccharomyces cerevisiae ATCC 9763; assay: disk diffusion assay; type: cell-based; details: 10 micrograms per disk; 35° C. Further: key: R = resistant.
[26] = system: Acinetobacter sp. ATCC 49137; assay: disk diffusion assay; type: cell-based; details: 10 micrograms per disk; ciprofloxacin 5, vancomycin 30 micrograms per disk; grown at 30° C.
[27] = system: Shigella dysenteriae ATCC 11835; assay: disk diffusion assay; type: cell-based; details: 10 micrograms per disk; 35° C.
[28] = system: Streptococcus pneumoniae 700676; assay: microbroth dilution MIC
[29] = system: Enterococcus faecalis ATCC 29212; assay: disk diffusion assay; type: cell-based; details: 10 micrograms per disk; ciprofloxacin 5, vancomycin 30 micrograms per disk; 35° C.
[30] = system: Cryptococcus neoformans ATCC 32045; assay: disk diffusion assay; type: cell-based; details: 10 micrograms per disk; 35° C.
[31] = system: Escherichia coli ATCC 25922; assay: disk diffusion assay; type: cell-based; details: 10 micrograms per disk; penicillin G 10 units per disk; 35° C. Further: key: R = resistant.
[32] = system: Candida krusei ATCC 6258; assay: disk diffusion assay; type: cell-based; details: 10 micrograms per disk; 35° C.
[33] = system: E. faecium 49624; assay: microbroth dilution MIC; type: cell-based, Enterococcus faecium
[34] = system: Bacillus cereus 4342; assay: microbroth dilution MIC; type: cell-based
[35] = system: Streptococcus pneumoniae ATCC 49619; assay: disk diffusion assay; type: cell-based; details: 10 micrograms per disk; ciprofloxacin 5, vancomycin 30 micrograms per disk; MHA with 5% dsb. and 5% CO2
[36] = system: Candida albicans ATCC 90028; assay: disk diffusion assay; type: cell-based; details: 10 micrograms per disk; 35° C. Further: key: R = resistant.
[37] = system: Vibrio fischeri PIC 345; assay: disk diffusion assay; type: cell-based; details: 10 micrograms per disk; ciprofloxacin 5, vancomycin 30 micrograms per disk; 35° C.
[38] = system: Neisseria gonnorhea ATCC 49226; assay: disk diffusion assay; type: cell-based; details: 10 micrograms per disk; ciprofloxacin 5, vancomycin 30 micrograms per disk; GC agar with 1% growth supplement with 5% CO2

Q: Which “MIC E. faecalis 29212” value [1] does the source give for munumbicin C here?
A: 0.5 micrograms/ml

Q: What about the “MIC Streptococcus pneumoniae 49619” value [2] of the same substance?
A: 0.125 micrograms/ml

Q: And the “diameter of the zone of inhibition, Candida albicans ATCC 24433” value [3]?
A: R

Q: What about the “MIC GISA 700699” value [4] of the same substance?
A: 2 micrograms/ml

Q: What about the “diameter of the zone of inhibition, S. epidermis ATCC 12228” value [5] of the same substance?
A: R

Q: What about the “MIC Bacillus subtilis” value ([6]; first listing in Table 4) of the same substance?
A: >8 micrograms/ml

Q: And the “MIC Bacillus subtilis” value ([6]; second listing in Table 4)?
A: 0.25 micrograms/ml

Q: And the “diameter of the zone of inhibition, Bacillus anthracis K8902” value [7]?
A: R

Q: And the “diameter of the zone of inhibition, Enterococcus faecalis ATCC 51299” value [8]?
A: 22 mm

Q: And the “MIC Streptococcus pneumoniae 700674” value [9]?
A: 0.125 micrograms/ml

Q: And the “diameter of the zone of inhibition, Candida parasilosis ATCC 22019” value [10]?
A: R

Q: What about the “MIC Enterococcus faecalis ATCC 51299” value ([11]; resistant to vancomycin, first listing in Table 4) of the same substance?
A: 16 micrograms/ml

Q: And the “MIC E. faecalis VRE 51299” value ([11]; third listing in Table 4)?
A: 0.5 micrograms/ml

Q: And the “IC50 M. tuberculosis H37Rv (ATCC 25618) (drug sensitive)” value [12]?
A: >150 micrograms/ml

Q: And the “increase of MICs when DNA was added” value ([13]; Bacillus subtilis and Staphylococcus aureus, 20 micrograms per well sheared salmon sperm DNA)?
A: affected

Q: And the “MIC B. subtilis 1A757” value ([13]; DNA +, 20 micrograms per well of sheared salmon sperm DNA)?
A: >32 micrograms/ml

Q: And the “MIC B. subtilis 1A757” value ([13]; DNA −)?
A: 0.5 micrograms/ml

Q: And the “MIC Listeria monocytogenes 19114” value [14]?
A: 4 micrograms/ml

Q: And the “MIC S. epidermis 12228” value [15]?
A: 2 micrograms/ml

Q: What about the “MIC MRSA 33591” value [16] of the same substance?
A: 0.5 micrograms/ml

Q: And the “diameter of the zone of inhibition, Candida glabrata ATCC 2001” value [17]?
A: R

Q: And the “diameter of the zone of inhibition, Candida tropicalis ATCC 750” value [18]?
A: R

Q: And the “MIC Staphylococccus simulans 11631” value [19]?
A: 1 micrograms/ml

Q: What about the “diameter of the zone of inhibition, Enterococcus faecium ATCC 49624” value [20] of the same substance?
A: 23 mm

Q: What about the “MIC S. aureus 29213” value [21] of the same substance?
A: 1 micrograms/ml

Q: What about the “MIC Listeria monocytogenes 19115” value [22] of the same substance?
A: 2 micrograms/ml

Q: What about the “diameter of the zone of inhibition, Candida parasdosis ATCC 90018” value [23] of the same substance?
A: R

Q: What about the “MIC Staphylococccus aureus 27734” value [24] of the same substance?
A: 0.5 micrograms/ml

Q: What about the “diameter of the zone of inhibition, Saccharomyces cerevisiae ATCC 9763” value [25] of the same substance?
A: R

Q: What about the “diameter of the zone of inhibition, Acinetobacter sp. ATCC 49137” value [26] of the same substance?
A: R

Q: What about the “diameter of the zone of inhibition, Shigella dysenteriae ATCC 11835” value [27] of the same substance?
A: R

Q: And the “MIC Streptococcus pneumoniae 700676” value [28]?
A: 0.125 micrograms/ml

Q: And the “diameter of the zone of inhibition, Enterococcus faecalis ATCC 29212” value [29]?
A: 20 mm

Q: What about the “diameter of the zone of inhibition, Cryptococcus neoformans ATCC 32045” value [30] of the same substance?
A: 12 mm

Q: And the “diameter of the zone of inhibition, Escherichia coli ATCC 25922” value [31]?
A: R

Q: And the “diameter of the zone of inhibition, Candida krusei ATCC 6258” value [32]?
A: 8 mm

Q: What about the “MIC E. faecium 49624” value [33] of the same substance?
A: 0.5 micrograms/ml

Q: And the “MIC Bacillus cereus 4342” value [34]?
A: 0.25 micrograms/ml

Q: And the “diameter of the zone of inhibition, Streptococcus pneumoniae ATCC 49619” value [35]?
A: 7 mm

Q: And the “diameter of the zone of inhibition, Candida albicans ATCC 90028” value [36]?
A: R

Q: And the “diameter of the zone of inhibition, Vibrio fischeri PIC 345” value [37]?
A: 9 mm

Q: What about the “diameter of the zone of inhibition, Neisseria gonnorhea ATCC 49226” value [38] of the same substance?
A: 8 mm

— patent publication US7259004B1, “Endophytic streptomycetes from higher plants with biological activity” (Montana State University, priority 2002, dated 2007)
